# Read-outs that look alike come from different tables or passages of the source.
# B1: TRAIL: recombinant hTRAIL (TNFSF 10, Apo-2L, CD253) (protein)
# chain: TSEETISTVQEKQQNISPLVRERGPQRVAAHITGTRGRSNTLSSPNSKNEKALGRKINSWESSRSGHSFLSNLHLRNGELVIHEKGFYYIYSQTYFRFQEEIKENTKNDKQMVQYIYKYTSYPDPILLMKSARNSCWSKDAEYGLYSIYQGGIFELKENDRIFVSVTNEHLIDMDHEASFFGAFLVG
# Tests used:
# [1] = cited from earlier work
# [2] = oral; no dose-limiting toxicities; cited from earlier work
# [3] = test system: advanced solid tumor; details: cited from earlier work
# [4] = combined with pimasertib, cited from earlier work
# [5] = single oral doses; GI toxicities the most common AEs; cited from earlier work
# [6] = test system: donor CD8^+ T-cells; assay: T cell phenotyping in the GvL mouse model (WEHI-3B), spleen day 12; type: in vivo; details: allo-transplanted leukemia bearing BALB/c mice, vs vehicle
# Description: FIG. 3: MDM2-inhibition promotes cytotoxicity and longevity of donor T cells • (a-h) Scatter plots and representative histograms show expression of Perforin (a, b), CD107a (c, d), IFN-γ (e, f), TNF-α (g, h) of CD8^+ T-cells isolated from spleen on day 12 following allo-HCT of WEHI-3B leukemia bearing BALB/c mice transplanted with C57BL/6 BM plus allogeneic C57BL/6 T-cells and treated with either vehicle or MDM2-inhibitor RG-7112. Mean value±SEM from n=14-19 biologically independent animals per group from 2 experiments are shown and p-values were calculated using two-sided Mann-Whitney U test. (m) Quantification of donor-derived (H-2kb+) TCRb+CD8+CD27+ TIM3+ T cells from allo-transplanted leukemia bearing BALB/c mice treated with RG-7112 or vehicle as indicated. (a) A representative flow cytometry histogram depicts the mean fluorescence intensity (MFI) and scatter plot showing fold-change of MFI for CD69 of all living donor (H-2kb^+) CD8^+ T cells from leukemia bearing BALB/c mice undergoing allo-HCT and being treated with vehicle. […] P-values were calculated using the two-sided Mann-Whitney U test. […] P-values were calculated using the two-sided Mann-Whitney U test. No difference in CD8 T-cells/all CD3 T-cells was detected. […] Mean value±SEM from n=14-19 biologically independent animals per group from 2 experiments are shown and p-value was calculated using two-sided Mann-Whitney U test. […]
# [7] = cited from earlier work; remark: listed apart in the source
# [8] = test system: p53-knockdown OCI-AML3 cells; assay: Expression in p53-knockdown cells (flow cytometry, western blot); type: cell-based, human; details: FIG. 9a
# Method: MFI of control-treated cells was set as 1.0. P-values were calculated using the two-sided Student's unpaired t-test.
# MFI of control-treated cells was set as 1.0. P-values were calculated using two-sided Student's unpaired t-test.
# (a) Representative western blot (left panel) showing the expression of MDM2, p53 and loading control (GAPDH) in WT OCI-AML3 cells or p53 knockdown OCI-AML3 cells exposed to […] doxorubicin for 4 hours, when indicated. Right panel: Quantification of the relative intensity of the protein bands for each group.
# P53 knockdown cells have been previously described (24). The p53 shRNA (p53.1224) had been cloned into a retroviral vector that co-expressed red fluorescent protein and which could be induced by doxycycline (24). […]
# For excluding dead cells, the LIVE/DEAD Fixable Dead Cell Stain kit (Molecular Probes, USA) or LIVE/DEAD™ Fixable Aqua Dead Cell Stain Kit (Thermo Scientific) along with True Stain FcX (BioLegend) were used, according to the manufacturer's instructions. For all flurochrome-conjugated antibodies, optimal concentrations were determined using titration experiments. […] Data were acquired on the BD LSR Fortessa flow cytometer (BD Biosciences, Germany) and analyzed using Flow Jo software version 10.4 (Tree Star, USA). […]
# [9] = test system: OCI-AML3 cells; assay: Killing assay with recombinant hTRAIL, viability by flow cytometry; type: cell-based, human; details: p53^−/− AML cells, FIG. 9e
# Method: After 48 hours limiting concentrations of hTRAIL (TNFSF 10) were added for 24 hours, where indicated. The viability of the AML cells was measured by flow cytometry. […] P-values were calculated using two-sided Student's unpaired t-test.
# Where indicated wildtype OCI-AML3 (WT) or p53 knockout (p53^−/−) OCI-AML3 were incubated with 1 μM MDM2-inhibitor RG7112. After 48 hours limiting concentrations of hTRAIL (TNFSF 10) were added for 24 hours where indicated. Viability of cells was measured by flow cytometry. […] P-values were calculated using two-sided Student's unpaired t-test.
# For Killing assays using recombinant hTRAIL ((TNFSF 10, Apo-2L, CD253;) […]®; ENZO), the ligand was added for 24 h 0.5 μg/ml (1:1000) for optimal killing and 0.25 μg/ml (1:2000) for limiting killing conditions to OCI-AML3 target cells. Viability of cells was assessed by LIVE/DEAD™ Fixable Aqua Dead Cell Stain Kit (Thermo Scientific). Data were acquired on the BD LSR Fortessa flow cytometer (BD Biosciences) and analyzed using Flow Jo software version 10.4 (Tree Star).
molecule,measurement,setting,value
COc1ncc(-c2nc3c(n2C(C)C)[C@H](c2ccc(Cl)cc2)N(c2cc(Cl)cn(C)c2=O)C3=O)c(OC)n1 [HDM201],grade 3/4 adverse event anemia,[1]; Reg 1,8%
same,grade 3/4 adverse event neutropenia,[1]; Reg 1,26%
same,grade 3/4 adverse event thrombocytopenia,[1]; Reg 1,24%
same,grade 3/4 adverse event anemia,[1]; Reg 2,17%
same,grade 3/4 adverse event neutropenia,[1]; Reg 2,14%
same,grade 3/4 adverse event thrombocytopenia,[1]; Reg 2,28%
CCN1[C@@H](C(=O)NC23CCC(C(=O)O)(CC2)CC3)[C@H](c2cccc(Cl)c2F)[C@]2(C(=O)Nc3cc(Cl)ccc32)C12CCCCC2 [APG-115],optimum dose,[2],100 mg
CC(C)(C)C[C@@H]1N[C@@H](C(=O)N[C@H]2CC[C@H](O)CC2)[C@H](c2cccc(Cl)c2F)[C@]12C(=O)Nc1cc(Cl)ccc12 [SAR405838],3-month progression free rate,[3]; 74 patients treated,32%
same,"best response, patients",[3]; 74 patients treated,56%
same,safety profile,[3]; patients with advanced solid tumors,acceptable safety profile
same,adverse event blood creatine phosphokinase,[4]; 26 patients,77%
same,adverse event diarrhoea,[4]; 26 patients,81%
same,adverse event nausea,[4]; 26 patients,62%
same,adverse event vomiting,[4]; 26 patients,62%
same,safety profile of the combination,[4],consistent with the safety profiles of both the drugs
CCOc1cc(C(C)(C)C)ccc1C1=N[C@@](C)(c2ccc(Cl)cc2)[C@@](C)(c2ccc(Cl)cc2)N1C(=O)N1CCN(CCCS(C)(=O)=O)CC1 [RG7112],tolerability,[5],generally well tolerated
same,CD8 T-cells/all CD3 T-cells,[6],No difference
CC(C)[C@@H](CS(=O)(=O)C(C)C)N1C(=O)[C@@](C)(CC(=O)O)C[C@H](c2cccc(Cl)c2)[C@H]1c1ccc(Cl)cc1 [AMG 232],MTD,[7]; dose escalation discontinued because of gastrointestinal AEs,not reached
same,treatment-related AE decreased appetite,[7]; in vivo,25%
same,treatment-related AE diarrhea,[7]; in vivo,56%
same,treatment-related AE nausea,[7]; in vivo,58%
same,treatment-related AE vomiting,[7]; in vivo,33%
COc1cccc2c1C(=O)c1c(O)c3c(c(O)c1C2=O)C[C@@](O)(C(=O)CO)C[C@@H]3O[C@H]1C[C@H](N)[C@H](O)[C@H](C)O1 [doxorubicin],induction of p53,[8],decreased
B1,apoptosis induced,[9],less apoptosis
